Where “and” joins values, the source holds several entries; their conditions need not be identical. Equal values may be shown once. Toxic doses and inconclusive results are not listed. No stated cut-off is given here; in the data, active means T/C of 150% or more; inactive means T/C below 125%.
System: L1210 leukemia ip in BDF1 mice, survival T/C
Assay: NCI In Vivo Anticancer Drug Screen. Data for tumor model L1210 Leukemia (intraperitoneal) in B6D2F1 (BDF1) mice
Conditions: endpoint: mean survival time, higher = longer survival
Outline: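 Mice bearing the transplanted tumor received compound or vehicle. Survival of the treated group was divided by that of the vehicle-treated control group to give the ratio.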

[1] = dose: 100.0 mg/kg/injection, schedule: Q04DX003 (ip), vehicle: Klucel (hydroxypropylcellulose) (HPC)
[2] = dose: 200.0 mg/kg/injection, schedule: Q04DX003 (ip), vehicle: Klucel (hydroxypropylcellulose) (HPC)
[3] = dose: 400.0 mg/kg/injection, schedule: Q04DX003 (ip), vehicle: Klucel (hydroxypropylcellulose) (HPC)
[4] = dose: 100.0 mg/kg/injection, schedule: Q01DX001 (ip), vehicle: Klucel (hydroxypropylcellulose) (HPC)
[5] = dose: 200.0 mg/kg/injection, schedule: Q01DX001 (ip), vehicle: Klucel (hydroxypropylcellulose) (HPC)
[6] = dose: 400.0 mg/kg/injection, schedule: Q01DX001 (ip), vehicle: Klucel (hydroxypropylcellulose) (HPC)
[7] = dose: 100.0 mg/kg/injection, schedule: Q04DX003 (ip), vehicle: saline
[8] = dose: 200.0 mg/kg/injection, schedule: Q04DX003 (ip), vehicle: saline
[9] = dose: 50.0 mg/kg/injection, schedule: Q01DX009 (ip), vehicle: saline
[10] = dose: 100.0 mg/kg/injection, schedule: Q01DX009 (ip), vehicle: saline
[11] = dose: 100.0 mg/kg/injection, schedule: Q01DX009 (ip), vehicle: Klucel (hydroxypropylcellulose) (HPC)
[12] = dose: 200.0 mg/kg/injection, schedule: Q01DX009 (ip), vehicle: Klucel (hydroxypropylcellulose) (HPC)
[13] = dose: 12.5 mg/kg/injection, schedule: Q01DX009 (ip), vehicle: saline
[14] = dose: 25.0 mg/kg/injection, schedule: Q01DX009 (ip), vehicle: saline
[15] = dose: 100.0 mg/kg/injection, schedule: Q04DX002 (ip), vehicle: saline with Tween-80
[16] = dose: 200.0 mg/kg/injection, schedule: Q04DX002 (ip), vehicle: saline with Tween-80
[17] = dose: 100.0 mg/kg/injection, schedule: Q01DX001 (ip), vehicle: saline
[18] = dose: 200.0 mg/kg/injection, schedule: Q01DX001 (ip), vehicle: saline

Measured: T/C

C[C@]12C=CC(=O)C=C1CC[C@H]1[C@@H]3C[C@@H](O)[C@](O)(C(=O)CO)[C@@]3(C)C[C@H](O)[C@@]12F
inactive: dose: 50.0 mg/kg/injection, schedule: Q04DX003 (sc), vehicle: steriod suspending solution 102 % of control | dose: 100.0 mg/kg/injection, schedule: Q01DX001 (sc), vehicle: steriod suspending solution 105 % of control | dose: 100.0 mg/kg/injection, schedule: Q04DX003 (sc), vehicle: steriod suspending solution 97 % of control | dose: 200.0 mg/kg/injection, schedule: Q01DX001 (sc), vehicle: steriod suspending solution 107 % of control | dose: 200.0 mg/kg/injection, schedule: Q04DX003 (sc), vehicle: steriod suspending solution 106 % of control | dose: 400.0 mg/kg/injection, schedule: Q01DX001 (sc), vehicle: steriod suspending solution 105 % of control | dose: 400.0 mg/kg/injection, schedule: Q04DX003 (sc), vehicle: steriod suspending solution 110 % of control

Nc1ccc(OCc2ccc(C(=O)Nc3cccc(S(=O)(=O)F)c3)cc2)c(Cl)c1
inactive: [1] 100 % of control | [2] 108 % of control | [3] 96 % of control

O=C1C(c2ccccc2)=C2c3ccccc3-c3ccccc3C2(O)C1c1ccccc1 (stereo unspecified)
inactive: [4] 98 % of control | [5] 103 % of control | [6] 98 % of control

O=C(CCCN1CCC(O)CC1)c1ccccc1
inactive: [7] 90 % of control | [8] 104 % of control

CCOC(=O)CCC(C)Br (stereo unspecified)
inactive: dose: 50.0 mg/kg/injection, schedule: Q01DX009 (ip), vehicle: saline with Tween-80 97 % of control | dose: 100.0 mg/kg/injection, schedule: Q01DX009 (ip), vehicle: saline with Tween-80 101 % of control | dose: 200.0 mg/kg/injection, schedule: Q01DX009 (ip), vehicle: saline with Tween-80 108 % of control

CCOCCc1ccncc1
inactive: [9] 101 % of control | [10] 94 % of control | dose: 200.0 mg/kg/injection, schedule: Q01DX009 (ip), vehicle: saline 90 % of control

CCCCCCCCCCCCCCCCCSc1ccc2ccccc2c1
inactive: [11] 97 % of control | [12] 100 % of control | dose: 400.0 mg/kg/injection, schedule: Q01DX009 (ip), vehicle: Klucel (hydroxypropylcellulose) (HPC) 95 % of control

CCOC(=O)C(COS(C)(=O)=O)NS(=O)(=O)c1ccc(C)cc1 (stereo unspecified)
inactive: [4] 98 % of control | [5] 104 % of control | [6] 95 % of control

CCN1C(=O)CC2(CCN(C)CC2)C1=O
inactive: dose: 0.78 mg/kg/injection, schedule: Q01DX009 (ip), vehicle: saline 98 % of control | dose: 1.56 mg/kg/injection, schedule: Q01DX009 (ip), vehicle: saline 102 % of control | dose: 3.12 mg/kg/injection, schedule: Q01DX009 (ip), vehicle: saline 95 % of control | dose: 6.25 mg/kg/injection, schedule: Q01DX009 (ip), vehicle: saline 117 % of control | [13] 117 % of control | [14] 98 % of control | dose: 25.0 mg/kg/injection, schedule: Q04DX003 (ip), vehicle: saline 113 % of control | [9] 104 % of control and 113 % of control | dose: 50.0 mg/kg/injection, schedule: Q04DX003 (ip), vehicle: saline 115 % of control | [10] 93 % of control and 100 % of control | [7] 105 % of control | [8] 112 % of control | dose: 400.0 mg/kg/injection, schedule: Q01DX009 (ip), vehicle: saline 93 % of control | dose: 400.0 mg/kg/injection, schedule: Q04DX003 (ip), vehicle: saline 109 % of control

OCC1C2CCC(CC2)C1CO (stereo unspecified)
inactive: [13] 102 % of control | dose: 12.5 mg/kg/injection, schedule: Q04DX003 (ip), vehicle: saline with Tween-80 97 % of control | [14] 106 % of control | dose: 25.0 mg/kg/injection, schedule: Q04DX003 (ip), vehicle: saline with Tween-80 94 % of control | dose: 50.0 mg/kg/injection, schedule: Q04DX003 (ip), vehicle: saline with Tween-80 102 % of control | dose: 100.0 mg/kg/injection, schedule: Q04DX003 (ip), vehicle: saline with Tween-80 96 % of control | dose: 200.0 mg/kg/injection, schedule: Q04DX003 (ip), vehicle: saline with Tween-80 93 % of control | dose: 400.0 mg/kg/injection, schedule: Q04DX003 (ip), vehicle: saline with Tween-80 102 % of control

CCCCN=C=S
inactive: [15] 104 % of control | [16] 91 % of control

CCC(C)OC(c1ccc2c(c1)OCO2)C(C)Br (stereo unspecified)
inactive: [15] 107 % of control | [16] 93 % of control | dose: 400.0 mg/kg/injection, schedule: Q04DX002 (ip), vehicle: saline with Tween-80 96 % of control

OC(Br)C1C(c2ccccc2)N1C1CCCCC1 (stereo unspecified)
inactive: [1] 98 % of control | [2] 91 % of control | [3] 93 % of control

COC1CN(C)C(=Nc2cccc3ccccc23)S1 (stereo unspecified)
inactive: dose: 100.0 mg/kg/injection, schedule: Q01DX009 (ip), vehicle: other 100 % of control | dose: 100.0 mg/kg/injection, schedule: Q04DX003 (ip), vehicle: other 103 % of control | dose: 200.0 mg/kg/injection, schedule: Q01DX009 (ip), vehicle: other 94 % of control | dose: 200.0 mg/kg/injection, schedule: Q04DX003 (ip), vehicle: other 95 % of control | dose: 400.0 mg/kg/injection, schedule: Q01DX009 (ip), vehicle: other 97 % of control | dose: 400.0 mg/kg/injection, schedule: Q04DX003 (ip), vehicle: other 92 % of control

CN(C)C/C(=N\O)c1ccc(Cl)cc1
inactive: dose: 50.0 mg/kg/injection, schedule: Q01DX009 (ip), vehicle: Klucel (hydroxypropylcellulose) (HPC) 93 % of control | [17] 97 % of control | [11] 93 % of control | [18] 100 % of control | [12] 100 % of control

CC(SC(C)C(=O)NN)C(=O)NN (stereo unspecified)
inactive: dose: 50.0 mg/kg/injection, schedule: Q01DX001 (ip), vehicle: saline 102 % of control | [17] 107 % of control | [18] 105 % of control | dose: 200.0 mg/kg/injection, schedule: Q01DX Z (ip), vehicle: carboxymethylcellulose (CMC) 94 % of control | dose: 296.0 mg/kg/injection, schedule: Q01DX Z (ip), vehicle: methylcellulose (MC) 98 % of control | dose: 370.0 mg/kg/injection, schedule: Q01DX Z (ip), vehicle: methylcellulose (MC) 104 % of control | dose: 400.0 mg/kg/injection, schedule: Q01DX001 (ip), vehicle: saline 100 % of control | dose: 400.0 mg/kg/injection, schedule: Q01DX Z (ip), vehicle: carboxymethylcellulose (CMC) 97 % of control | dose: 555.0 mg/kg/injection, schedule: Q01DX Z (ip), vehicle: methylcellulose (MC) 110 % of control | dose: 800.0 mg/kg/injection, schedule: Q01DX Z (ip), vehicle: carboxymethylcellulose (CMC) 111 % of control | dose: 833.0 mg/kg/injection, schedule: Q01DX Z (ip), vehicle: methylcellulose (MC) 119 % of control

C[n+]1cccc2cccc(C(=O)O)c21
inactive: dose: 75.0 mg/kg/injection, schedule: Q01DX001 (ip), vehicle: saline 100 % of control | dose: 150.0 mg/kg/injection, schedule: Q01DX001 (ip), vehicle: saline 94 % of control

— PubChem BioAssay AID248 (DTP/NCI, 2004)
